Source: patent US20250129070A1, “BIFUNCTIONAL ANDROGEN RECEPTOR COMPOUNDS” (priority 2023, published 2025)

Experiments:
AR / CBP ternary complex = assay: Ternary complex formation assay (sandwich ELISA, AR capture / CBP detection) in VCaP cell lysates; format: cell-based; settings: 1.5 hours treatment, sandwich ELISA (AR capture, CBP or p300 detection)
Method in brief: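 Anti-AR (AR 441)-coated plates capture AR from lysates of VCaP cells grown ≥3 days at 50K/well in 5% charcoal-stripped FBS, dosed with bifunctional for 1.5 h and lysed 30 min at 4 °C. Co-captured CBP/p300 is probed with rabbit mAb and HRP anti-rabbit, then QuantaRed fluorescence (570/585) is read at 0, 5 and 15 min.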

VCaP cells = assay: VCaP growth inhibition assay; format: cell-based; settings: 30 pM R1881, 9 days, CTG
Method in brief: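 Growth read by CTG luminescence after 9-day exposure to compound (final 100 nM–10 fM, 1:5 steps) plus 30 pM R1881, in phenol red-free DMEM with 5% CSS. Cells pre-incubated 72 h before dosing; IC50 by nonlinear 4-parameter regression.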

| Structure (SMILES) | EC50 (AR / CBP ternary complex) | IC50 (VCaP cells) |
| --- | --- | --- |
| COc1cc(OC2C(C)(C)C(NC(=O)c3ccc(N4CCN(CC5CCC(n6nc(N7CCCc8cc(-c9cnn(C)c9)c(C(F)F)cc87)c7c6CCN(C(C)=O)C7)CC5)CC4)cc3)C2(C)C)ccc1C#N (stereo not drawn) [Compound 319, 4-[4-[[4-[5-acetyl-3-[7-(difluoromethyl)-6-(1-methylpyrazol-4-yl)-3,4-dihydro-2H-quinolin-1-yl]-6,7-dihydro-4H-pyrazolo[4,3-c]pyridin-1-yl]cyclohexyl]methyl]piperazin-1-yl]-N-[3-(4-cyano-3-methoxy-phenoxy)-2,2,4,4-tetramethyl-cyclobutyl]benzamide] | < 1 nM | ≤ 0.1 nM |
| COc1cc(OC2C(C)(C)C(NC(=O)c3ccc(N4CCC(C(=O)N5CCC(n6nc(N7CCCc8cc(-c9cnn(C)c9)c(C(F)F)cc87)c7c6CCN(C(C)=O)C7)CC5)CC4)cc3)C2(C)C)ccc1C#N (stereo not drawn) [Compound 252, 4-[4-[4-[5-acetyl-3-[7-(difluoromethyl)-6-(1-methylpyrazol-4-yl)-3,4-dihydro-2H-quinolin-1-yl]-6,7-dihydro-4H-pyrazolo[4,3-c]pyridin-1-yl]piperidine-1-carbonyl]-1-piperidyl]-N-[3-(4-cyano-3-methoxy-phenoxy)-2,2,4,4-tetramethyl-cyclobutyl]benzamide] | < 1 nM | 0.1 to 1 nM |
| CC(=O)N1CCc2c(c(N3CCCc4cc(-c5cnn(C)c5)c(C(F)F)cc43)nn2C2CCC3(CC2)CN(C2CCN(c4ncc(C(=O)NC5C(C)(C)C(Oc6ccc(C#N)c(Cl)c6)C5(C)C)cn4)CC2)C3)C1 (stereo not drawn) [Compound 371, 2-[4-[7-[5-acetyl-3-[7-(difluoromethyl)-6-(1-methylpyrazol-4-yl)-3,4-dihydro-2H-quinolin-1-yl]-6,7-dihydro-4H-pyrazolo[4,3-c]pyridin-1-yl]-2-azaspiro[3.5]nonan-2-yl]-1-piperidyl]-N-[3-(3-chloro-4-cyano-phenoxy)-2,2,4,4-tetramethyl-cyclobutyl]pyrimidine-5-carboxamide] | < 1 nM | ≤ 0.1 nM |
| CC(=O)N1CCc2c(c(N3CCCc4cc(-c5cnn(C)c5)c(C(F)F)cc43)nn2C2CCN(C(=O)C3CCN(c4ccc5c(n4)CN(C4C(C)(C)C(Oc6ccc(C#N)c(Cl)c6)C4(C)C)C5=O)CC3)CC2)C1 (stereo not drawn) [Compound 299, 4-[3-[2-[4-[4-[5-acetyl-3-[7-(difluoromethyl)-6-(1-methylpyrazol-4-yl)-3,4-dihydro-2H-quinolin-1-yl]-6,7-dihydro-4H-pyrazolo[4,3-c]pyridin-1-yl]piperidine-1-carbonyl]-1-piperidyl]-5-oxo-7H-pyrrolo[3,4-b]pyridin-6-yl]-2,2,4,4-tetramethyl-cyclobutoxy]-2-chloro-benzonitrile] | < 1 nM | 0.1 to 1 nM |
| CC(=O)N1CCc2c(c(N3CCCc4cc(-c5cnn(C)c5)ccc43)nn2C2CCN(CC3CCN(c4ncc(C(=O)NC5C(C)(C)C(Oc6ccc(C#N)c(Cl)c6)C5(C)C)cn4)CC3)CC2)C1 (stereo not drawn) [Compound 24, 2-[4-[[4-[5-acetyl-3-[6-(1-methylpyrazol-4-yl)-3,4-dihydro-2H-quinolin-1-yl]-6,7-dihydro-4H-pyrazolo[4,3-c]pyridin-1-yl]-1-piperidyl]methyl]-1-piperidyl]-N-[3-(3-chloro-4-cyano-phenoxy)-2,2,4,4-tetramethyl-cyclobutyl]pyrimidine-5-carboxamide] | < 1 nM | 0.1 to 1 nM |
| CC(=O)N1CCc2c(c(N3CCCc4cc(-c5cnn(C)c5)c(C(F)F)cc43)nn2C2CCN(CC3CCN(c4ccc5c(n4)CN(C4C(C)(C)C(Oc6ccc(C#N)c(Cl)c6)C4(C)C)C5=O)CC3)CC2)C1 (stereo not drawn) [Compound 296, 4-[3-[2-[4-[[4-[5-acetyl-3-[7-(difluoromethyl)-6-(1-methylpyrazol-4-yl)-3,4-dihydro-2H-quinolin-1-yl]-6,7-dihydro-4H-pyrazolo[4,3-c]pyridin-1-yl]-1-piperidyl]methyl]-1-piperidyl]-5-oxo-7H-pyrrolo[3,4-b]pyridin-6-yl]-2,2,4,4-tetramethyl-cyclobutoxy]-2-chloro-benzonitrile] | < 1 nM | 0.1 to 1 nM |
| CC(=O)N1CCc2c(c(N3CCCc4cc(-c5cnn(C)c5)c(C(F)F)cc43)nn2C2CCC(OC3CN(c4ncc(C(=O)NC5C(C)(C)C(Oc6ccc(C#N)c(Cl)c6)C5(C)C)cn4)C3)CC2)C1 (stereo not drawn) [Compound 341] | < 1 nM | 0.1 to 1 nM |
| CC(=O)N1CCc2c(c(N3CCCc4cc(-c5cnn(C)c5)c(C)cc43)nn2C2CCN(C3CCC4(CC3)CN(c3ncc(C(=O)NC5C(C)(C)C(Oc6ccc(C#N)c(Cl)c6)C5(C)C)cn3)C4)CC2)C1 (stereo not drawn) [Compound 468, 2-[7-[4-[5-acetyl-3-[7-methyl-6-(1-methylpyrazol-4-yl)-3,4-dihydro-2H-quinolin-1-yl]-6,7-dihydro-4H-pyrazolo[4,3-c]pyridin-1-yl]-1-piperidyl]-2-azaspiro[3.5]nonan-2-yl]-N-[3-(3-chloro-4-cyano-phenoxy)-2,2,4,4-tetramethyl-cyclobutyl]pyrimidine-5-carboxamide] | < 1 nM | 0.1 to 1 nM |
| COC1CN(c2ncc(C(=O)NC3C(C)(C)C(Oc4ccc(C#N)c(Cl)c4)C3(C)C)cn2)CCC1CN1CCC(n2nc(N3CCCc4cc(-c5cnn(C)c5)c(C(F)F)cc43)c3c2CCN(C(C)=O)C3)CC1 (stereo not drawn) [Compound 331, 2-[4-[[4-[5-acetyl-3-[7-(difluoromethyl)-6-(1-methylpyrazol-4-yl)-3,4-dihydro-2H-quinolin-1-yl]-6,7-dihydro-4H-pyrazolo[4,3-c]pyridin-1-yl]-1-piperidyl]methyl]-3-methoxy-1-piperidyl]-N-[3-(3-chloro-4-cyano-phenoxy)-2,2,4,4-tetramethyl-cyclobutyl]pyrimidine-5-carboxamide] | < 1 nM | 0.1 to 1 nM |
| CC(=O)N1CCc2c(c(-c3cccc4cc(-c5cnn(C)c5)ncc34)nn2C2CCN(CC3CCN(c4ncc(C(=O)NC5C(C)(C)C(Oc6ccc(C#N)c(Cl)c6)C5(C)C)cn4)CC3)CC2)C1 (stereo not drawn) [Compound 136, 2-[4-[[4-[5-acetyl-3-[3-(1-methylpyrazol-4-yl)-8-isoquinolyl]-6,7-dihydro-4H-pyrazolo[4,3-c]pyridin-1-yl]-1-piperidyl]methyl]-1-piperidyl]-N-[3-(3-chloro-4-cyano-phenoxy)-2,2,4,4-tetramethyl-cyclobutyl]pyrimidine-5-carboxamide] | < 1 nM | ≤ 0.1 nM |
| COc1cc(OC2C(C)(C)C(NC(=O)c3ccc(N4CCC[C@H](N5CCC(n6nc(N7CCCc8cc(-c9cnn(C)c9)c(C(F)F)cc87)c7c6CCN(C(C)=O)C7)CC5)C4)cc3)C2(C)C)ccc1C#N (stereo partly drawn) [Compound 399, 4-[(3S)-3-[4-[5-acetyl-3-[7-(difluoromethyl)-6-(1-methylpyrazol-4-yl)-3,4-dihydro-2H-quinolin-1-yl]-6,7-dihydro-4H-pyrazolo[4,3-c]pyridin-1-yl]-1-piperidyl]-1-piperidyl]-N-[3-(4-cyano-3-methoxy-phenoxy)-2,2,4,4-tetramethyl-cyclobutyl]benzamide] | 1 to 10 nM | 1 to 100 nM |
| COc1cc(OC2C(C)(C)C(NC(=O)c3ccc(N4CCC(CCc5ccc(-c6cc7c(cn6)N(c6nn(C8CCOCC8)c8c6CN(C(C)=O)CC8)CCC7)cn5)CC4)cc3)C2(C)C)ccc1C#N (stereo not drawn) [Compound 246, 4-[4-[2-[5-[1-(5-acetyl-1-tetrahydropyran-4-yl-6,7-dihydro-4H-pyrazolo[4,3-c]pyridin-3-yl)-3,4-dihydro-2H-1,7-naphthyridin-6-yl]-2-pyridyl]ethyl]-1-piperidyl]-N-[3-(4-cyano-3-methoxy-phenoxy)-2,2,4,4-tetramethyl-cyclobutyl]benzamide] | < 1 nM | 0.1 to 1 nM |
